Measured values published in patent US6599499B1, “Uses of diterpenoid triepoxides as an anti-proliferative agent” (priority 1999, dated 2003).

Experiments:
[1] = tested on: A549 (non-small cell lung cancer) cells; assay: Cell viability by MTT assay, A549 cells; conditions: for Percent survival: MTT after 48 h
Method: (§1) Cell culture and luciferase assay. A549 (non-small cell lung cancer), HT-1080 (fibrosarcoma), and MCF-7 (breast cancer) cells were cultured in the appropriate media with 10% FCS supplemented with L-glutamine, penicillin, and streptomycin. p53 wild-type (+/+) and null (−/−) Mouse Embryonic Fibroblasts (MEFs) transfected with the E1A/Ras were grown in DMEM containing 15% FCS supplemented with L-glutamine, penicillin, and streptomycin. Transfections were done on MCF-7 cells using the lipofectamine Plus reagent. At 24 hours after transfection, MCF-7 cells were left untreated or treated with triptolide (20 ng/ml) or doxorubicin (100 nM) for 4, 8, and 16 hours and cells were collected for luciferase assay. Luciferase activity was measured in samples with equal protein concentration with a Luminometer (Analytical Luminescence Laboratory, San Diego, Calif.).
(§2) Cell viability assay. Cell viability was measured by an 3-(4,5-dimethylthiazol-2-yl)-2,5-diphenyltetrazolium bromide (MTT) assay as described above. Untreated or cells treated with triptolide and/or doxorubicin were harvested at the indicated times followed by the addition of MTT to the cells in a 96-well plate. Cells were solubilized with […] acidified with 0.1N HCl. The 96-plate was read at a wavelength of 590 nm on an iEMS Labsystems plate reader.

[2] = tested on: HT-1080 (fibrosarcoma) cells; assay: Cell viability by MTT assay, HT-1080 cells; conditions: for Percent survival: MTT after 48 h
Method: as §1, §2

p53 = p53 protein level by immunoblotting (Example 2); assay type: cell-based, human; conditions: for increase in p53 protein: MCF-7 cells
Method: (§3) Immunoblotting. At 8 hours after triptolide and/or doxorubicin treatment cells were harvested at the times indicated and lysed using HNET buffer (50 mM HEPES pH 7.5, 100 mM NaCl, 1 mM EGTA, and 1% Triton X-100) supplemented with 1 mM DTT, 1 mM PMSF and protease inhibitors cocktail (Boehringer Mannheim, Germany). 35 μg of protein was loaded on 10% SDS-PAGE followed by transferring to PVDF membrane. Immunoblotting was performed as previously described using a p53 mouse monoclonal antibody from Oncogene Research Products (Lee et al. (1999) J Biol Chem 274:13451-5).

Mdm2 = Mdm2 mRNA (RT-PCR) and protein (immunoblot) in MCF-7 cells; assay type: cell-based, human
Method: RT-PCR. RNA was prepared from MCF-7 cells using Rneasy Mini Kit from Qiagen Inc. (Valencia, Calif.). cDNAs were prepared using M-MLV reverse transcriptase (Gibco) with 2 μg of total RNA. 1/20 of total cDNA was used in limited (25 cycles) PCR reactions using Taq polymerase (Gibco). The following primer pairs were used: p53 [SEQ ID NO:1] 5′-[…]-3′ and 5′-[SEQ ID NO:2] TCTTCUTXGGCTGGGGAGAG-3′, mdm2, [SEQ ID NO:3] 5′-[…]-3′ and [SEQ ID NO:4] 5′-[…]-3′, p21, [SEQ ID NO:5] 5′-[…]-3′ and [SEQ ID NO:6] 5′-[…]-3′, and glyceraldehyde-3-phosphate dehydrogenase (GAPDH)- [SEQ ID NO:7] 5′-[…]-3′ and [SEQ ID NO:8] 5′-[…]-3′.
as §3
In the experiments shown in FIG. 5, RT-PCR was performed using 2 μg of total RNAs extracted from MCF-7 cells. […] GADPH was used as a loading control. The plasmid pBP100-GL2 which contains a p53-binding site in the mdm2 promoter was transiently transfected into MCF-7 cells, and cellular lysates were used for the luciferase assay.

[3] = tested on: p53-binding site in the mdm2 promoter; assay: mdm2 promoter-luciferase reporter (pBP100-GL2) in MCF-7 cells; assay type: cell-based, human
Excerpt: Reagents. PG490 (triptolide, MW 360) was obtained from Pharmagenesis (Palo Alto, Calif.). A549 (non-small cell lung cancer) and HT1080 (fibrosarcoma) cell lines were from ATCC. MCF-7 (breast cancer) cell line was obtained from Dr. Ron Weigel (Stanford University). Mouse embryonic fibroblasts (p53+/+ and p53−/−) cell lines were provided by Dr. Amato J. Giaccia (Stanford University). […] The mdm2 promoter-luciferase construct pBP100-GL2 was provided by Dr.
Louis Noumovski (Stanford University) and was made by cloning the Bgl II-Hind III fragment from the pBP100CAT vector into the pGL2-Basic Vector (Promega, Madison, Wis.). MCF-7 cells were transfected using lipofectamine Plus reagent from the Life Technologies, Inc. Cells were collected and lysates were prepared according to the manufacturer's protocol for luciferase assay (Promega Corp., Madison, Wis.). Antibodies for p53, p21^WAF1/CIP1, Mdm2, Protein phosphatase-1 (PP-1), and Erk-2 were from Calbiochem, Inc (La Jolla, Calif.) and the rabbit polyclonal Bax antibody was from Upstate Biotechnology (Lake Placid, N.Y.).
(§4) Cell culture and luciferase assay.
In the experiments shown in FIG. 5, RT-PCR was performed using 2 μg of total RNAs extracted from MCF-7 cells. […] GADPH was used as a loading control. […]

p53 wild-type (+/+) MEFs = assay: Cell viability of p53+/+ mouse embryonic fibroblasts; assay type: cell-based
Excerpt: as §4
Functional p53 enhances triptolide-induced cell death.

HT1080 cells = assay: Cell cycle analysis by propidium iodide/FACS, HT1080 cells; assay type: cell-based, human; conditions: 16 h
Method: Cell Cycle Analysis. HT1080 cells ([…]) were treated with triptolide (20 ng/ml) and/or doxorubicin (100 nM) for 16 h. Cells were then harvested and washed with cold PBS. The cells were resuspended gently in 5 ml of 100% ethanol and fixed at 25° C. for 1 h. After washing with PBS, the cells were incubated with DNase-free RNase A (200 μg/ml) at 37 ° C. for 1 h and washed with PBS. Propidium iodide (10 μg/ml) was added, and the cells were incubated at 37° C. for 5 min. Cells were separated by sonicating at 20% output level for 15 s using a VirSonic 50 sonicator (Vitis Inc., NY). The samples were then sorted by FACS, and cell cycle analysis was done with FlowJo (version 3.0.3) (Tree Start, Inc, San Carlos, Calif.).

[4] = A549, Triptolide 5 ng/ml, Doxorubicin 100 nM, alone or combined
[5] = HT-1080, Triptolide 5 ng/ml, Doxorubicin 100 nM, alone or combined
[6] = Mus musculus, Fibroblast, read-out: reduction of cell viability

Compound: COc1cccc2c1C(=O)c1c(O)c3c(c(O)c1C2=O)C[C@@](O)(C(=O)CO)C[C@@H]3O[C@H]1C[C@H](N)[C@H](O)[C@H](C)O1 [doxorubicin, reference compound]
- Percent survival [1, 4]: 85.7 ± 9.6%
- cytotoxicity at 0.1 µM ([1]; Homo sapiens, A549, 48 h, read-out: decrease in cell viability, A549, triptolide 20 ng/ml, doxorubicin 100 nM, alone or combined, 48 hours): 14.3%
- Percent survival [2, 5]: 93.6 ± 4.3%
- cytotoxicity at 0.1 µM ([2]; Homo sapiens, HT-1080, 48 h, read-out: decrease in cell viability, HT-1080, triptolide 5 ng/ml (13.5 nM), doxorubicin 100 nM, alone or combined, 48 hours): 6.4%
- increase in p53 protein (p53): 2 fold
- increase in the Mdm2 mRNA and protein (Mdm2; MCF-7 cells, doxorubicin 100 nM): 1.5-2 fold
- increase of transactivation of the Mdm2 reporter ([3]; MCF-7, doxorubicin 100 nM, by 16 h): 15%
- more cell death in MEF cells with wild-type p53 than in those without functional p53 (p53 wild-type (+/+) MEFs): 35%
- cells in G2/M (HT1080 cells; HT1080, doxorubicin 100 nM alone or with triptolide 20 ng/ml, 11% without treatment): 49.8%

Compound: CC(C)[C@]12O[C@H]1[C@@H]1O[C@]13[C@]1(O[C@H]1C[C@H]1C4=C(CC[C@@]13C)C(=O)OC4)[C@@H]2O [PG490, triptolide]
- Percent survival [1, 4]: 91.1 ± 3.8%
- Percent survival ([1]; A549, Triptolide 20 ng/ml alone or with Doxorubicin 100 nM): 64.0 ± 8.2%
- effect on cell death induced by carboplatinum ([1]; A549 cells): enhances cell death
- Percent survival [2, 5]: 90.4 ± 6.2%
- Percent survival ([2]; HT-1080, Triptolide 20 ng/ml alone or with Doxorubicin 100 nM): 26.0 ± 5.2%
- cytotoxicity at 0.02 µg/mL ([2]; Homo sapiens, HT-1080, read-out: decrease in cell viability): 74%
- increase in p53 steady state protein levels (p53; MCF-7 and A549 cells, dose- and time-dependent): 2-4 fold
- increase in p53 protein (p53): greater than 4 fold
- change in levels of the Mdm2 protein (Mdm2; MCF-7, triptolide 5 ng/ml, 8 or 24 hours): no significant change
- increase in Mdm2 protein (Mdm2; MCF-7, triptolide 20 ng/ml, 8 h): approximately 1.5 fold
- Mdm2 protein (Mdm2; MCF-7, triptolide 20 ng/ml, 24 h): almost a complete loss
- mdm2 mRNA (Mdm2; cells treated with triptolide): time-dependent decrease
- decrease of transactivation of the reporter construct ([3]; MCF-7, triptolide 20 ng/ml): approximately 30%
- cytotoxicity at 0.005 µg/mL (p53 wild-type (+/+) MEFs; [6]): 48%
- cytotoxicity at 0.01 µg/mL (p53 wild-type (+/+) MEFs; [6]): 73%
- cells in S phase (HT1080 cells; HT1080, triptolide 20 ng/ml, 23.7% in unstimulated cells): 46%
